# Tested on: A2780 human ovarian carcinoma
# Test: Human A2780 xenograft tumor growth in athymic nude mice
# Assay type: in vivo
# Experimental: A2780 is a human ovarian cell line (Sigma-Aldrich). The cells are grown in culture media at 37° C. in 5% CO2 with humidity in the atmosphere. Cell culture media for A2780 human ovarian carcinoma is RPMI-1640 (without phenol red) with 2.05 mM L-glutamine, 0.01 mg/ml insulin and 10% fetal bovine serum (EBS) added.
# To evaluate in viva efficacy and effect A2780 (2×10^6) cells in a 1:1 Matrigel® mix (0.2 mL volume) are implanted by subcutaneous injection in the hind leg of 6-8 weeks of age athymic nude female mice (Harlan Laboratories). A total of 7 to 10 mice are used for each group. Just before implantation, animals are irradiated ([…]). Mice are fed ad libitum on normal chow. Treatment is initiated with oral administration (gavage) of Compound A or vehicle (1% sodium carboxymethylcellulose (Na-CMC) in 0.25% Tween®-80) or Compound B in 1% hydroxyethyl cellulose (HEC)/0.25% Tween® 80/0.05% Antifoam or their vehicle in 0.2 mL volume when tumor size reached to 150±50 mm^3, in this case after the tumor measurements were taken on study day 9. Compound A was administered at 4 or 8 mg/kg on a Monday, Wednesday and Friday schedule for 4 weeks and Compound B was administered at 15 or 30 mg/kg daily for 28 days. Tumor growth and body weight are monitored over time to evaluate efficacy and signs of toxicity. Bidimensional measurements of tumors are performed twice a week and tumor volumes are calculated based on the following formula: (Tumor Volume)=[(L)×(W2)×(II/6)] where L is mid-axis length and W is mid-axis width. Tumor volume data are transformed to a […] to equalize variance across time and treatment groups. The log volume data are analyzed with a two-way repeated measures analysis of variance by time and treatment using the MIXED™ procedure in SAS™ software (version 8.2). The correlation model for the repeated measures is spatial power. Test Groups are: • 01: Control: 1% HEC/0.25% Tween 80/0.05% Antifoam; 1% CMC/0.25% Tween 80/0.05% Antifoam; • 02: Compound A 8 mg/kg; • 03: Compound B 30 mg/kg; • 04: rapamycin 4 mg/kg; • 05: Compound A 8 mg/kg and Compound B 30 mg/kg; • 06: Compound A 4 mg/kg and Compound B 30 mg/kg; • 07: Compound B 15 mg/kg and Compound A 8 mg/kg; • 08: Compound B 15 mg/kg and Compound A 4 mg/kg; • 09: Compound A 8 mg/kg and rapamycin 4 mg/kg.
# Using the repeated measures analysis previously described, a contrast statement is used to test for an interaction effect on study day 36, using the two specific treatments that were combined.
smiles,measurement,setting,value
"C[C@H](NC(=O)CCC(F)(F)F)C(=O)N[C@@H]1C(=O)N(CCO)c2ncccc2-c2ccccc21 [Compound A, 4,4,4-trifluoro-N-[(1S)-2-[[(7S)-5-(2-hydroxyethyl)-6-oxo-7H-pyrido[2,3-d][3]benzazepin-7-yl]amino]-1-methyl-2-oxo-ethyl]butanamide]","Tumor volume, Geometric Mean","Group 02: Compound A 8 mg/kg oral Mon/Wed/Fri, study day 7 (before first dose)",121.62 mm^3
same,"Tumor volume, Geometric Mean","Group 02: Compound A 8 mg/kg oral Mon/Wed/Fri, study day 9 (before first dose)",109.98 mm^3
same,"Tumor volume, Geometric Mean","Group 02: Compound A 8 mg/kg oral Mon/Wed/Fri, study day 12",131.53 mm^3
same,"Tumor volume, Geometric Mean","Group 02: Compound A 8 mg/kg oral Mon/Wed/Fri, study day 15",194.78 mm^3
same,"Tumor volume, Geometric Mean","Group 02: Compound A 8 mg/kg oral Mon/Wed/Fri, study day 19",408.55 mm^3
same,"Tumor volume, Geometric Mean","Group 02: Compound A 8 mg/kg oral Mon/Wed/Fri, study day 22",639.48 mm^3
same,"Tumor volume, Geometric Mean","Group 02: Compound A 8 mg/kg oral Mon/Wed/Fri, study day 26",1140.46 mm^3
same,"Tumor volume, Geometric Mean","Group 02: Compound A 8 mg/kg oral Mon/Wed/Fri, study day 29",1384.21 mm^3
same,"Tumor volume, Geometric Mean","Group 02: Compound A 8 mg/kg oral Mon/Wed/Fri, study day 33",1631.82 mm^3
same,"Tumor volume, Geometric Mean","Group 02: Compound A 8 mg/kg oral Mon/Wed/Fri, study day 36",1616.05 mm^3
"CO[C@@H](C)Cn1c(=O)n(C)c2cnc3ccc(-c4cncc(C(C)(C)O)c4)cc3c21 [Compound B, 8-[5-(1-hydroxy-1-methylethyl)pyridin-3-yl]-1-[(2S)-2-methoxypropyl]-3-methyl-1,3-dihydro-2H-imidazo[4,5-c]quinolin-2-one]","Tumor volume, Geometric Mean","Group 03: Compound B 30 mg/kg oral daily, study day 7 (before first dose)",149.36 mm^3
same,"Tumor volume, Geometric Mean","Group 03: Compound B 30 mg/kg oral daily, study day 9 (before first dose)",118.70 mm^3
same,"Tumor volume, Geometric Mean","Group 03: Compound B 30 mg/kg oral daily, study day 12",138.06 mm^3
same,"Tumor volume, Geometric Mean","Group 03: Compound B 30 mg/kg oral daily, study day 15",201.95 mm^3
same,"Tumor volume, Geometric Mean","Group 03: Compound B 30 mg/kg oral daily, study day 19",326.33 mm^3
same,"Tumor volume, Geometric Mean","Group 03: Compound B 30 mg/kg oral daily, study day 22",488.21 mm^3
same,"Tumor volume, Geometric Mean","Group 03: Compound B 30 mg/kg oral daily, study day 26",776.88 mm^3
same,"Tumor volume, Geometric Mean","Group 03: Compound B 30 mg/kg oral daily, study day 29",1135.14 mm^3
same,"Tumor volume, Geometric Mean","Group 03: Compound B 30 mg/kg oral daily, study day 33",1527.41 mm^3
same,"Tumor volume, Geometric Mean","Group 03: Compound B 30 mg/kg oral daily, study day 36",1664.20 mm^3
"CO[C@H]1C[C@@H]2CC[C@@H](C)[C@@](O)(O2)C(=O)C(=O)N2CCCC[C@H]2C(=O)O[C@H]([C@H](C)C[C@@H]2CC[C@@H](O)[C@H](OC)C2)CC(=O)[C@H](C)/C=C(\C)[C@@H](O)[C@@H](OC)C(=O)[C@H](C)C[C@H](C)/C=C/C=C/C=C/1C [rapamycin, reference compound]","Tumor volume, Geometric Mean","Group 04: rapamycin 4 mg/kg, study day 7 (before first dose)",130.45 mm^3
same,"Tumor volume, Geometric Mean","Group 04: rapamycin 4 mg/kg, study day 9 (before first dose)",100.08 mm^3
same,"Tumor volume, Geometric Mean","Group 04: rapamycin 4 mg/kg, study day 12",130.81 mm^3
same,"Tumor volume, Geometric Mean","Group 04: rapamycin 4 mg/kg, study day 15",215.88 mm^3
same,"Tumor volume, Geometric Mean","Group 04: rapamycin 4 mg/kg, study day 19",428.88 mm^3
same,"Tumor volume, Geometric Mean","Group 04: rapamycin 4 mg/kg, study day 22",786.46 mm^3
same,"Tumor volume, Geometric Mean","Group 04: rapamycin 4 mg/kg, study day 26",1291.64 mm^3
same,"Tumor volume, Geometric Mean","Group 04: rapamycin 4 mg/kg, study day 29",1664.57 mm^3
same,"Tumor volume, Geometric Mean","Group 04: rapamycin 4 mg/kg, study day 33",2136.31 mm^3
same,"Tumor volume, Geometric Mean","Group 04: rapamycin 4 mg/kg, study day 36",2461.81 mm^3

# Reference: patent US11564929B2, “Combination therapy with Notch and PI3K/mTOR inhibitors for use in treating cancer” (Eli Lilly and Company, priority 2016, dated 2023)
